Consider 25 compounds from patent publication US20230086703A1, “N-(4-(5-chloropyridin-3-yl)phenyl)-2-(2-(cyclopropanesulfonamido)pyrimidin-4-yl) butanamide derivatives and related compounds as human CTPS1 inhibitors for the treatment of proliferative diseases” (Step Pharma S.A.S., priority 2019, published 2023).

Bounds are passed on as bounds.

One assay has as its target T1, human CTPS1 (Homo sapiens, UniProt P17812).
T1 construct: FLAG (with GG linker); His8 (with GG linker); purchased Proteros biostructures GmbH
T1 sequence (P17812 1-591): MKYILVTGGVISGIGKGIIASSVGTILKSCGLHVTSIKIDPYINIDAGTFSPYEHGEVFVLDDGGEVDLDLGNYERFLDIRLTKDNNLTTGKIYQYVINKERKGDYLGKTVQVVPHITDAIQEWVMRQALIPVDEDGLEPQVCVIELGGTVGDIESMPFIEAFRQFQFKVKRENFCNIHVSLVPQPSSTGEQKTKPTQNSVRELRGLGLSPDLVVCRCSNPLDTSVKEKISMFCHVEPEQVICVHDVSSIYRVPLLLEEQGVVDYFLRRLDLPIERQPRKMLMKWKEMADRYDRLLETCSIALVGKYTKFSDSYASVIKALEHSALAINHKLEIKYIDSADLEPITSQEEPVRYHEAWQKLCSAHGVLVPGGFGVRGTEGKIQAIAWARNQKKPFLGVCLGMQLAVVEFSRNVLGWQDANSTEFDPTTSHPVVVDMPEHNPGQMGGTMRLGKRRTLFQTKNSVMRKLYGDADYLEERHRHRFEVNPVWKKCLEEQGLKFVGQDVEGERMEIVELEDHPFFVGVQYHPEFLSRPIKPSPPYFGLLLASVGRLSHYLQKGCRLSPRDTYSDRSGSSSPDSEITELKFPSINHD
Kind of assay: Human CTPS1 enzyme inhibition, ADP-Glo Max assay. The note with it: ADP-Glo Max assay; Table 10; read-out: Human CTPS1 Enzyme Inhibition, IC50 grouped by potency range (CTPS1). The format is biochemical. An outline of the steps:
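Enzyme preincubated with compound for 10 min at 25 °C in 50 mM Tris pH 8.0, 10 mM MgCl2, 0.01% Tween-20, 2 mM L-cysteine. ATP-to-ADP conversion detected by ADP-Glo Max luminescence after 60 min depletion and 60 min development steps. Percentage inhibition calculated per concentration.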
A general note: In ADP-Glo the light output rises with the ADP produced.
`CN(C(=O)C(C)(C)c1csc(NS(=O)(=O)C2CC2)n1)c1ccc(-c2cccnc2)cc1` [T164, 2-(2-(cyclopropanesulfonamido)thiazol-4-yl)-N,2-dimethyl-N-(4-(pyridin-3-yl)phenyl)propanamide]: the IC50 is 1000 to 10000 nM.
Turning to `CCC(CC)(C(=O)Nc1ccc(-c2cncc(OC)n2)cc1)c1csc(NS(=O)(=O)C2CC2)n1` [T119, 2-(2-(cyclopropanesulfonamido)thiazol-4-yl)-2-ethyl-N-(4-(6-methoxypyrazin-2-yl)phenyl)butanamide], the IC50 is below 100 nM.
For the compound `COc1cccc(-c2ccc(NC(=O)C(C)(C)c3csc(NS(=O)(=O)C4CC4)n3)cc2)n1` [T269, 2-(2-(cyclopropanesulfonamido)thiazol-4-yl)-N-(4-(6-methoxypyridin-2-yl)phenyl)-2-methylpropanamide], the IC50 lay in the range of 100 to 1000 nM.
`COc1cncc(-c2ccc(NC(=O)C(C)(C)c3csc(NS(=O)(=O)C4CC4)n3)cc2)n1` [T265, 2-(2-(cyclopropanesulfonamido)thiazol-4-yl)-N-(4-(6-methoxypyrazin-2-yl)phenyl)-2-methylpropanamide]: the IC50 is below 100 nM.
For the compound `Cc1sc(NS(=O)(=O)C2CC2)nc1C(C)(C)C(=O)Nc1ccc(-c2cccnc2)cc1` [T319, 2-(2-(cyclopropanesulfonamido)-5-methylthiazol-4-yl)-2-methyl-N-(4-(pyridin-3-yl)phenyl)propanamide], the IC50 was in the range of 1000 to 10000 nM.
Take `COc1cncc(-c2ccc(NC(=O)Cc3csc(NS(=O)(=O)C4CC4)n3)cc2)n1` [T81, 2-(2-(cyclopropanesulfonamido)thiazol-4-yl)-N-(4-(6-methoxypyrazin-2-yl)phenyl)acetamide]: the IC50 is below 100 nM.
Same read-out and setting: under `Cc1ccncc1-c1ccc(NC(=O)C(C)(C)c2csc(NS(=O)(=O)C3CC3)n2)cc1` [T254, 2-(2-(cyclopropanesulfonamido)thiazol-4-yl)-2-methyl-N-(4-(4-methylpyridin-3-yl)phenyl)propanamide] stands 100 to 1000 nM.
The same measure, in the same setting: under `O=C(Cc1csc(NS(=O)(=O)C2CC2)n1)Nc1ccc(-c2cncnc2)cc1` [T247, 2-(2-(cyclopropanesulfonamido)thiazol-4-yl)-N-(4-(pyrimidin-5-yl)phenyl)acetamide] stands 100 to 1000 nM.
On to `CC(C)(C(=O)Nc1ccc(-c2cncc(OCC(F)(F)F)n2)cc1F)c1csc(NS(=O)(=O)C2CC2)n1` [T131, 2-(2-(cyclopropanesulfonamido)thiazol-4-yl)-N-(2-fluoro-4-(6-(2,2,2-trifluoroethoxy)pyrazin-2-yl)phenyl)-2-methylpropanamide], for which the IC50 was below 100 nM.
Still for that read-out and setting: under `CC(C)(C(=O)Nc1ccc(-c2cncc(OC3CC3)n2)cn1)c1csc(NS(=O)(=O)C2CC2)n1` [T142, 2-(2-(cyclopropanesulfonamido)thiazol-4-yl)-N-(5-(6-cyclopropoxypyrazin-2-yl)pyridin-2-yl)-2-methylpropanamide] stands below 100 nM; under `CCOc1cncc(-c2ccc(NC(=O)C(C)(C)c3csc(NS(=O)(=O)C4CC4)n3)cc2)n1` [T52, 2-(2-(cyclopropanesulfonamido)thiazol-4-yl)-N-(4-(6-ethoxypyrazin-2-yl)phenyl)-2-methylpropanamide], below 100 nM; under `COc1cncc(-c2ccc(NC(=O)C(C)(C)c3csc(NS(=O)(=O)C4CC4)n3)c(C)c2)c1` [T285, 2-(2-(cyclopropanesulfonamido)thiazol-4-yl)-N-(4-(5-methoxypyridin-3-yl)-2-methylphenyl)-2-methylpropanamide], below 100 nM.
Same read-out and setting: under `CC(C)(C(=O)Nc1ccc(-c2cncc(OCC(F)(F)F)c2)cn1)c1csc(NS(=O)(=O)C2CC2)n1` [T114, 2-(2-(cyclopropanesulfonamido)thiazol-4-yl)-2-methyl-N-(5′-(2,2,2-trifluoroethoxy)-[3,3′-bipyridin]-6-yl)propanamide] stands 100 to 1000 nM; under `CCC(CC)(C(=O)Nc1ccc(-c2cnccn2)cc1)c1csc(NS(=O)(=O)C2CC2)n1` [T122, 2-(2-(cyclopropanesulfonamido)thiazol-4-yl)-2-ethyl-N-(4-(pyrazin-2-yl)phenyl)butanamide], below 100 nM.
As for `CC(C)(C(=O)Nc1ccc(-c2cncc(C#N)n2)cn1)c1csc(NS(=O)(=O)C2CC2)n1` [T263, N-(5-(6-cyanopyrazin-2-yl)pyridin-2-yl)-2-(2-(cyclopropanesulfonamido)thiazol-4-yl)-2-methylpropanamide], the IC50 lay within 1000 to 10000 nM.
On the same count and under the same terms, under `COc1cccc(-c2ccc(NC(=O)C(C)(C)c3csc(NS(=O)(=O)C4CC4)n3)nc2)c1` [T232, 2-(2-(cyclopropanesulfonamido)thiazol-4-yl)-N-(5-(3-methoxyphenyl)pyridin-2-yl)-2-methylpropanamide] stands 100 to 1000 nM.
Same read-out and setting: under `CCOc1cncc(-c2ccc(NC(=O)C(C)(C)c3csc(NS(=O)(=O)C4CCC4)n3)cc2)n1` [T307, 2-(2-(cyclobutanesulfonamido)thiazol-4-yl)-N-(4-(6-ethoxypyrazin-2-yl)phenyl)-2-methylpropanamide] stands below 100 nM.
Still for that read-out and setting: under `COC(C(=O)Nc1ccc(-c2cncc(C(F)(F)F)n2)cc1F)c1csc(NS(=O)(=O)C2CC2)n1` (single isomer, unassigned) [T458, 2-(2-(cyclopropanesulfonamido)thiazol-4-yl)-N-(2-fluoro-4-(6-(trifluoromethyl)pyrazin-2-yl)phenyl)-2-methoxyacetamide] stands below 100 nM; under `CCOc1cncc(-c2ccc(NC(=O)C(C)(C)c3csc(NS(C)(=O)=O)n3)c(C(F)(F)F)c2)n1` [T429, N-(4-(6-ethoxypyrazin-2-yl)-2-(trifluoromethyl)phenyl)-2-methyl-2-(2-(methylsulfonamido)thiazol-4-yl)propanamide], below 100 nM.
Consider `COc1cc(-c2cccnc2)ccc1NC(=O)Cc1csc(NS(=O)(=O)C2CC2)n1` [T215, 2-(2-(cyclopropanesulfonamido)thiazol-4-yl)-N-(2-methoxy-4-(pyridin-3-yl)phenyl)acetamide], for which the IC50 was below 100 nM.
On the same count and under the same terms, under `CCOc1cncc(-c2ccc(NC(=O)C(C)(C)c3csc(NS(=O)(=O)CCOC)n3)c(F)c2)n1` [T432, N-(4-(6-ethoxypyrazin-2-yl)-2-fluorophenyl)-2-(2-((2-methoxyethyl)sulfonamido)thiazol-4-yl)-2-methylpropanamide] stands 100 to 1000 nM; under `CCC(C(=O)Nc1ccc(-c2cccnc2)cn1)c1csc(NS(=O)(=O)C2CC2)n1` (stereo not shown) [T62, N-([3,3′-bipyridin]-6-yl)-2-(2-(cyclopropanesulfonamido)thiazol-4-yl)butanamide], 100 to 1000 nM.
Take `CC(C)(C(=O)Nc1ccc(-c2cncc(Cl)n2)cc1)c1csc(NS(=O)(=O)C2CC2)n1` [T155, N-(4-(6-chloropyrazin-2-yl)phenyl)-2-(2-(cyclopropanesulfonamido)thiazol-4-yl)-2-methylpropanamide]: the IC50 is below 100 nM.
On the same count and under the same terms, the result for `Cc1ncc(-c2ccc(NC(=O)C(C)(C)c3csc(NS(=O)(=O)C4CC4)n3)cc2)nc1C` [T282, 2-(2-(cyclopropanesulfonamido)thiazol-4-yl)-N-(4-(5,6-dimethylpyrazin-2-yl)phenyl)-2-methylpropanamide] reads 100 to 1000 nM.

Staying with this assay, now noted: Table 12, ADP-Glo Max assay; read-out: CTPS1 (Human CTPS1 Enzyme Inhibition data grouped by potency range).
On to `CCOC(=O)CN1CCC(C(=O)Nc2ccc(-c3cncc(OCC)n3)cn2)(c2nccc(NS(=O)(=O)C3CC3)n2)CC1` [P295], for which the IC50 is below 100 nM.
